For one data set, the system named is Rats: Wistar femelles. Kind of data set: Atherogenic diet (modified Aubert technique): macroscopic examination of the aorta. The class given is in vivo, Rat Wistar. The settings on record: for Intensité des lésions Cotation: scale Stade 0 to Stade 5. An excerpt:
La technique utilisée est celle, légèrement modifiée, de AUBERT D., FERAUD J.C., LACAZE B., PEPINO., PANAK E. et PODESTA M. "Athérogénèse expérimentale chez le Rat Wistar". ATHEROSCLEROSIS 2Q (1974) 263 - 280.
• - Rats: Wistar femelles, E.O.P.S. en provenance de l'élevage EVIC-CEBA. • - Poids corporel: 160 180 g au départ de l'étude • - Alimentation: UAR A03, enrichi en cholestérol (0,5 %) et en Acide chloique (0,5 %). • - Eau de boisson: eau de ville. • - 15 animaux par lot et par cage MAKROLON SAFI® de 59 x 38,5 cm sur litière de copeaux de bois blanc dépoussiérés. • - Cages placées dans un module animalerie climatisé (20°C * 1°C), à l'humidité constante (50 % ± 10 %). Durée d'éclairement: 12 heures par jour (7 h à 19 h). • - Administration des produits: Après 15 jours de régime athéromateux, on leur administre par voie orale pendant 4 jours 250 000 Ul/kg de vitamine D2 (Stérogyl 15 H) en solution dans l'huile d'olive. On administre ensuite les produits à étudier pendant 4 semaines dès la fin de l'administration de l'agent lésionnel.
En fin d'étude, tous les animaux sont sacrifiés par ponction subtotale du sang à l'aorte abdominale après anesthésie au pentobarbital sodique. On prélève le coeur, le foie et l'aorte sur laquelle on effectue la cotation du pouvoir athérogène. Pour ce faire, les aortes sont coupées longitudinalement puis étalées pour permettre une vue d'ensemble du revêtement endothélial depuis les valvules aortiques jusqu'à la bifurcation du tronc coeliaque (segment inférieur de l'aorte thoracique).
L'aorte est séparée en 2 zones: • - Zone 1: Valvules aortiques - premières artères intercostales • - Zone 2: premières artères intercostales - bifurcation du tronc coeliaque.
L'intensité des dépôts athéromateux est évaluée selon les critères suivants: • - Stade 0: Absence de dépôts • - Stade 1: Dépôts discrets ([…]) peu nombreux • - Stade 2: Dépôts discrets nombreux • - Stade 3: Dépôts importants (> 1 mm) nombreux • - Stade 4: Dépôts très importants ou très nombreux mais laissant quelques zones non infiltrées. • - Stade 5: Dépôts sur tout l'endothélium.
Deux paramètres sont à prendre en considération: • 1. Le nombre d'animaux présentant des lésions macroscopiques, dont le pourcentage d'animaux atteints. • 2. L'intensité des lésions observées cotées selon les indications fournies précédemment.

For data set [1], the system named is Souris SWISS. Kind of data set: Acute toxicity, single administration, digestive (oral) route. The settings on record: for létalité, symptomatologie toxique: 10.000 mg/kg VO, single dose, 10 souris mâles et femelles. The class given is in vivo. An excerpt:
(§1) Souris SWISS mâles et femelles de 22 à 25g de poids corporel. Animaux EOPS. (exempte d'organisme pathogène spécifique), en provenance de l'élevage CERJ., 53680 LE GENEST et acclimatés au moins 8 jours à l'animalerie du laboratoire.
(§2) Sauf mention contraire précisée dans les tableaux de résultats, 10 animaux par dose, sexe et cage en MAKROLON SAFI@ de 40/25 cm. Litière de copeaux de bois blanc. Alimentation standard pour rats et souris UAR et eau ordinaire à volonté.
(§3) Ils sont administrés sans jeûne préalable: • - par voie digestive (intubation gastrique par sonde oesophagienne métallique) à raison de 0,5 ml ou 1 ml pour 20 g de poids corporel d'une suspension aqueuse à 3p.100 en gomme arabique du dérivé testé. • - par voie intrapéritonéale à raison de 0,5 ml ou 1 ml pour 20 g d'une suspension du dérivé testé dans le soluté isotonique de chlorure de sodium à 3p.100 en gomme arabique.
(§4) Pendant 6 heures après l'administration unique, puis tous les jours pendant 15 jours.
(§5) S'il y a lieu, les doses létales cinquante (DL50) sont calculées selon les méthodes de: • - Behrens et Karber (B.K.) • - Miller et Tainter (M.T.), cette dernière méthode permettant d'attribuer, pour le seuil de probabilité de P = 0,05 un intervalle de confiance aux DL 50.
(§6) En outre, sont déterminées les DLO et DL100. • - DLO = DMT: Dose Maxima toujours tolérée • - DL100 = DmM: Dose minima toujours Mortelle.

Experiment in data set [2]: as above
The class given is in vivo. The settings on record: mouse, in vivo, po.
Source text: as §1, §2, §3, §4, §5, §6

For data set [3], the system named is Souris SWISS. The experiment in a line: Acute toxicity, single administration, intraperitoneal route. The settings on record: for DLO: DLO = Dose Maxima toujours tolérée. Format: in vivo. The protocol:
(§7) Souris SWISS mâles et femelles de 22 à 25g de poids corporel. Animaux EOPS.
as §2, §3, §4, §5, §6

Experiment in data set [4]: as above
Format: in vivo. The settings on record: mouse, in vivo, ip; for LD50 at 360 h: read-out: DL50; for mortality at 360 h: single dose. The protocol: as §7, §2, §3, §4, §5, §6

Where two headings read alike, the source gives them in different places. Where only a bound is given, the exact number is not on record here.

Take `CCOC(=O)C(C)(C)Oc1ccc(Cl)cc1` [Clofibrate]: the “Intensité des lésions Cotation” value with Rats: Wistar femelles (100 mg/kg) was 2.00. Besides, the DL50 with Souris SWISS [1] (mouse, in vivo, po, 360 h) was 2650 ± 190 mg/kg; in the data set on Souris SWISS [3] (mouse, in vivo, ip, 21600 min), roughly 1700 mg/kg. The LD50 at 360 h in data set [2] (DL50) is 2500 ± 235 mg/kg; in data set [4] (voie intrapéritonéale, mâles, "de l'ordre de"), roughly 1850 mg/kg.
Turning to `COc1ccc(C(=O)CC2(O)C(=O)c3ccccc3C2=O)cc1OC` [Produit de l'invention, 2-[(3,4-dimethoxybenzoyl)methyl] 2-hydroxy 1,3-dioxo indane], the “Animaux Atteints Score Clofibrate” value in the data set with Rats: Wistar femelles (100 mg/kg) is on record as 1.69. For the same compound, the “Intensité des lésions Score Clofibrate” value in the data set on Rats: Wistar femelles (100 mg/kg) was 0.88. The “Observations Macroscopiques Score Total” value with Rats: Wistar femelles (100 mg/kg) came out at 2.57. The “Animaux Atteints %” value with Rats: Wistar femelles (100 mg/kg, animals with macroscopic lesions) worked out at 69.23%. Moreover, the “Intensité des lésions Cotation” value in the data set with Rats: Wistar femelles (100 mg/kg) is 2.08. In addition, the “activité sur l'évalution des lésions macroscopiques” value in the data set with Rats: Wistar femelles (compared with Clofibrate at the same dose) is “plus actif”. Besides, the “létalité, symptomatologie toxique” value with Souris SWISS [1] is reported as “ni létalité, ni symptomatologie toxique”; with Souris SWISS [1] (listed as dérivé) it was “n'est pas toxique”. Further, the DLO is no less than 10.000 mg/kg with Souris SWISS [1] (VO, souris mâles et femelles); 2000 mg/kg with Souris SWISS [3] (IP, Souris Femelles); 2000 mg/kg with Souris SWISS [3] (IP, Souris Mâles). The same compound registered a DL100 in the data set on Souris SWISS [1] (mouse, in vivo, 21600 min) greater than 10000 mg/kg. In addition, the LD50 at 360 h is greater than 10000 mg/kg in data set [2] (VO, souris mâles et femelles, read-out: DL50); 3000 mg/kg in data set [4] (Souris Femelles, method Behrens et Karber (B.K.)); 3000 ± 145 mg/kg in data set [4] (Souris Femelles, method Miller et Tainter (M.T.), confidence interval P = 0,05); 3400 mg/kg in data set [4] (Souris Mâles, method Behrens et Karber (B.K.)); 3350 ± 190 mg/kg in data set [4] (Souris Mâles, method Miller et Tainter (M.T.), confidence interval P = 0,05); roughly 3000 mg/kg in data set [4] (voie intrapéritonéale, sex not specified, "de l'ordre de"). The “La mort survient par arrêt respiratoire en” value in the data set on Souris SWISS [3] (IP, time to death after injection) was 24 - 48 heures. In addition, the mortality at 360 h in data set [4] (2000 mg/kg, 2000 mg/kg IP, read-out: Létalite sur 10 souris Femelles) came out at 0%; in data set [4] (2000 mg/kg, 2000 mg/kg IP, read-out: Létalite sur 10 souris Mâles), 0%; in data set [4] (2500 mg/kg, 2500 mg/kg IP, read-out: Létalite sur 10 souris Femelles), 10%; in data set [4] (2500 mg/kg, 2500 mg/kg IP, read-out: Létalite sur 10 souris Mâles), 10%; in data set [4] (3000 mg/kg, 3000 mg/kg IP, read-out: Létalite sur 10 souris Femelles) it was 60%; in data set [4] (3000 mg/kg, 3000 mg/kg IP, read-out: Létalite sur 10 souris Mâles) it was 30%. Moreover, the mortality at 360 h in data set [4] (3500 mg/kg, 3500 mg/kg IP, read-out: Létalite sur 10 souris Femelles) turned out to be 80%; in data set [4] (3500 mg/kg, 3500 mg/kg IP, read-out: Létalite sur 10 souris Mâles), 50%; in data set [4] (4000 mg/kg, 4000 mg/kg IP, read-out: Létalite sur 10 souris Femelles), 100%; in data set [4] (4000 mg/kg, 4000 mg/kg IP, read-out: Létalite sur 10 souris Mâles), 80%; in data set [4] (4500 mg/kg, 4500 mg/kg IP, read-out: Létalite sur 10 souris Femelles), 100%; in data set [4] (4500 mg/kg, 4500 mg/kg IP, read-out: Létalite sur 10 souris Mâles) it was 100%. In addition, the mortality at 360 h in data set [4] (5000 mg/kg, 5000 mg/kg IP, read-out: Létalite sur 10 souris Femelles) came to 100%; in data set [4] (5000 mg/kg, 5000 mg/kg IP, read-out: Létalite sur 10 souris Mâles), 100%.

For the origin of these results see EP0167553B1, “NEW THERAPEUTICAL APPLICATION OF AN INDANE DIONE DERIVATIVE AND PHARMACEUTICAL COMPOSITIONS INTENDED TO SAID UTILIZATION” (priority 1983, dated 1985).
